Entries after “also recorded” stand apart in the source; their conditions may differ. Read-outs that look alike come from different tables or passages of the source. *1 amine or outer side, *2 acyl side, *3 side chain or, on linkers, in order; H or OH if unused. Where a SMILES comes first, the peptide text is derived from it. Bridges are numbered along the chain shown (N, C = ends). [ ]: non-standard residue; d: D form. The star is where a group is joined. pTerphenylCO(4''-OnC5H11) = CCCCCOc1ccc(-c2ccc(-c3ccc(C(=O)*)cc3)cc2)cc1; Orn(4R-OH,5R-OH) = O=C([C@H](C[C@@H](O)[C@@H](O)N[*:3])N[*:1])[*:2]; hTyr(3S-OH,4S-OH) = N[C@H](C(=O)O)[C@H](O)[C@@H](O)c1ccc(O)cc1; Pro(3S-OH,4S-Me) = C[C@H]1CN[C@H](C(=O)O)[C@H]1O; Hyp = O=C(O)[C@@H]1C[C@@H](O)CN1
Legend:
zebrafish embryos = details: for Mortality rate (MR) / Pericardial effusion (percentage of treated larvae): 1 µM; for Mortality rate (MR): average percentage of larvae that died before imaging; for Effect on heart functionality: clinically relevant doses (Cmax); for Pericardial Effusion Rate(%): zebrafish, in vivo; for Overall effect on embryonic development / cardiovascular system: screening concentration; for Overall effect on embryonic development: clinically relevant concentrations (Cmax)
zebrafish larvae = assay: Behavioral assay (bright/dark locomotion test, DanioVision); details: for Effect on swimming behavior: screening concentration 1 µM (Ivermectin 0.5 µM)
[1] = tested on: inflammatory and immune response gene expression; assay type: in vivo, zebrafish (Danio rerio); details: for Inflammatory response related gene expression upon SARS-CoV-2 spike protein treatment: with spike protein; for Inflammatory gene response in the absence of spike protein: without spike protein, vs DMSO
[2] = read-out: Cmax (highest concentration detected in blood plasma), humans; cited from earlier work
[3] = with SARS-CoV-2 spike protein, drug 48 h

In the case of 17α-Hydroxyprogesterone, the “Effect on body length” value (zebrafish embryos; 1 µM screening) is reported as “larval overgrowth”.

For `S=C(NCc1ccc2c(c1)OCO2)N1CCN(c2ncnc3c2oc2ccccc23)CC1` [Amuvatinib], the “Effect on swimming behavior” value (zebrafish larvae) was “effect”.

With `CCCCCOc1ccc(-c2ccc(-c3ccc(C(=O)N[C@H]4C[C@@H](O)[C@@H](O)NC(=O)[C@@H]5[C@@H](O)[C@@H](C)CN5C(=O)[C@H]([C@@H](C)O)NC(=O)[C@H]([C@H](O)[C@@H](O)c5ccc(O)cc5)NC(=O)[C@@H]5C[C@@H](O)CN5C(=O)[C@H]([C@@H](C)O)NC4=O)cc3)cc2)cc1` [Anidulafungin] ({pTerphenylCO(4''-OnC5H11)}-[Orn(4R-OH,5R-OH)]T[Hyp][hTyr(3S-OH,4S-OH)]T[Pro(3S-OH,4S-Me)]; lactam 1-C) the “Effect on swimming behavior” value (zebrafish larvae) was “effect”.

With `Cc1cccc(/C=N/Nc2cc(N3CCOCC3)nc(OCCc3ccccn3)n2)c1` [Apilimod] the “Effect on swimming behavior” value (zebrafish larvae) was “effect” and the “Mortality rate (MR)” value (zebrafish embryos) was “over 10%”.

For `COc1ccc(CCN2CCC(Nc3nc4ccccc4n3Cc3ccc(F)cc3)CC2)cc1` [Astemizole], the “Pericardial effusion (percentage of treated larvae)” value (zebrafish embryos) was 94.4%, the “Effect on ISV area” value (zebrafish embryos; 1 µM screening) was “negative effects” and the “Effect on body length” value (zebrafish embryos; 1 µM screening) was “highest reduction”. The “Mortality rate (MR)” value (zebrafish embryos) was “over 10%”.

For `CCS(=O)(=O)N1CC(CC#N)(n2cc(-c3ncnc4[nH]ccc34)cn2)C1` [Baricitinib], the “Effect on motility / swimming behavior / embryo activity” value (zebrafish larvae; at Cmax) was “effects on embryo activity; also recorded: alterations; also recorded: affected”, the ccl20a.3 levels [1, 3] was “significantly reduced” and the “Inflammatory response related gene expression upon SARS-CoV-2 spike protein treatment” value [1] was “counteracted”. The “Inflammatory gene response in the absence of spike protein” value (shortened to “Inflammatory gene response”) [1] was “alter the inflammatory gene response”, the Cmax [2] was 144 nM and the “Mean Mortality(%)” value (zebrafish embryos; at Cmax, mean of morphological and behavioral assay) was 18.3%. The “Effect on heart functionality” value (zebrafish embryos) was “reduced heart functionality” and the “Pericardial Effusion Rate(%)” value (zebrafish embryos) was 9.30%.

In the case of `Nc1nc(Nc2ccc3c(c2)CC[C@@H](N2CCCC2)CC3)nn1-c1cc2c(nn1)-c1ccccc1CCC2` [Bemcentinib], the “Effect on swimming behavior” value (zebrafish larvae) is reported as “effect”.

With `COc1cc2nccc(Oc3ccc(NC(=O)C4(C(=O)Nc5ccc(F)cc5)CC4)cc3)c2cc1OC` [Cabozantinib] the “Effect on swimming behavior” value (zebrafish larvae) was “effect” and the “Effect on ISV formation” value (zebrafish embryos; 1 µM screening) was “strong inhibition”.

With `CN(C)C(=O)COC(=O)Cc1ccc(OC(=O)c2ccc(NC(=N)N)cc2)cc1` [Camostat] the “Effect on swimming behavior” value (zebrafish larvae) was “effect”.

For `CC(C)C[C@H](NC(=O)[C@@H](NC(=O)c1cccc(-c2ccccc2)n1)[C@@H](C)O)B(O)O` [Delanzomib], the “Effect on swimming behavior” value (zebrafish larvae) was “effect”.

With `NC(=O)c1nc(F)c[nH]c1=O` [Favipiravir] the “Effect on body length” value (zebrafish embryos; 1 µM screening) was “mild effect”.

With `COc1ccc2cc1Oc1ccc(cc1)C[C@H]1c3cc(c(OC)cc3CCN1C)Oc1c(O)c(OC)cc3c1[C@H](C2)N(C)CC3` [Hanfangchin B] the “Effect on swimming behavior” value (zebrafish larvae) was “effect”.

With `CCN(CCO)CCCC(C)Nc1ccnc2cc(Cl)ccc12` (stereo not drawn) [Hydroxychloroquine] the “Effect on ISV area” value (zebrafish embryos; 1 µM screening) was “significant reductions”, the “Effect on ejection fraction” value (zebrafish embryos; 1 µM screening) was “significant reductions” and the “Overall effect on embryonic development / cardiovascular system” value (zebrafish embryos) was “mild defects on the cardiovascular system”.

In the case of `Cc1cccc(C)c1OCC(=O)N[C@@H](Cc1ccccc1)[C@@H](O)C[C@H](Cc1ccccc1)NC(=O)[C@H](C(C)C)N1CCCNC1=O` [Lopinavir], the “Effect on ejection fraction” value (zebrafish embryos; 1 µM screening) is reported as “reduced”.

With `COC(=O)C1=C(C)NC(C)=C(C(=O)OCCN2CCN(C(c3ccccc3)c3ccccc3)CC2)C1c1cccc([N+](=O)[O-])c1` (stereo not drawn) [Manidipine] the “Mortality rate (MR)” value (zebrafish embryos) was “over 10%”.

For `CO[C@@H]1[C@H](N(C)C(=O)c2ccccc2)C[C@H]2O[C@]1(C)n1c3ccccc3c3c4c(c5c6ccccc6n2c5c31)C(=O)NC4` [Midostaurin], the “Mortality rate (MR)” value (zebrafish embryos) was “over 10%”.

For `CC(C)C(=O)OC[C@H]1O[C@@H](n2ccc(NO)nc2=O)[C@H](O)[C@@H]1O` [Molnupiravir], the ccl20a.3 levels [1, 3] was “significantly reduced”, the il4 expression [1, 3] was “successfully downregulated” and the ptg expression [1, 3] was “upregulated to control levels”. The “Inflammatory response related gene expression upon SARS-CoV-2 spike protein treatment” value [1] was “counteracted”, the “Inflammatory gene response” value [1] was “alter the inflammatory gene response” and the Cmax [2] was 40 nM. The “Overall effect on embryonic development” value (zebrafish embryos) was “severe adverse effects” and the “Pericardial Effusion Rate(%)” value (zebrafish embryos) was 0.00%.

With `O=C(Nc1ccc([N+](=O)[O-])cc1Cl)c1cc(Cl)ccc1O` [Niclosamide] the “Mortality rate (MR)” value (zebrafish embryos) was “over 10%”.

In the case of `O=C(Nc1cc(Cl)cc(Cl)c1O)c1c(O)c(Cl)cc(Cl)c1Cl` [Oxyclozanide], the “Effect on swimming behavior” value (zebrafish larvae) is reported as “effect”.

With `O=c1[nH]c2ccccc2n1C1CCN(CCCC(c2ccc(F)cc2)c2ccc(F)cc2)CC1` [Pimozide] the “Pericardial effusion (percentage of treated larvae)” value (zebrafish embryos) was 100%, the “Effect on ISV area” value (zebrafish embryos; 1 µM screening) was “negative effects” and the “Effect on body length” value (zebrafish embryos; 1 µM screening) was “highest reduction”. The “Mortality rate (MR)” value (zebrafish embryos) was “over 10%”.

In the case of `Cc1ccc(C(=O)Nc2ccc(CN3CCN(C)CC3)c(C(F)(F)F)c2)cc1C#Cc1cnc2cccnn12` [Ponatinib], the “Effect on swimming behavior” value (zebrafish larvae) is reported as “effect”, the “Pericardial effusion (percentage of treated larvae)” value (zebrafish embryos) is reported as 100% and the “Effect on body length” value (zebrafish embryos; 1 µM screening) is reported as “highest reduction”.

For `C[C@@H](c1nc(-c2ccc(C#N)cc2)cs1)[C@](O)(Cn1cncn1)c1ccc(F)cc1F` [Ravuconazole], the “Effect on swimming behavior” value (zebrafish larvae) was “effect”.

In the case of `CNC(=O)c1cc(Oc2ccc(NC(=O)Nc3ccc(Cl)c(C(F)(F)F)c3)c(F)c2)ccn1` [Regorafenib], the “Effect on ISV formation” value (zebrafish embryos; 1 µM screening) is reported as “strong inhibition”.

In the case of `CCC(CC)COC(=O)[C@H](C)N[P@](=O)(OC[C@H]1O[C@@](C#N)(c2ccc3c(N)ncnn23)[C@H](O)[C@@H]1O)Oc1ccccc1` [Remdesivir], the ptg expression [1, 3] is reported as “upregulated to control levels”, the “Inflammatory response related gene expression upon SARS-CoV-2 spike protein treatment” value [1] is reported as “counteracted” and the “Inflammatory gene response” value [1] is reported as “broadest effect; also recorded: alter the inflammatory gene response”. The Cmax [2] was 4500 nM, the “Effect on ejection fraction” value (zebrafish embryos; at Cmax) was “decrease” and the “Effect on heart rate” value (zebrafish embryos; at Cmax) was “decrease”. The “Overall effect on embryonic development” value (zebrafish embryos) was “severe adverse effects”, the “Effect on heart functionality” value (zebrafish embryos) was “reduced” and the “Pericardial Effusion Rate(%)” value (zebrafish embryos) was 7.69%.

With `NC(=O)c1ncn([C@@H]2O[C@H](CO)[C@@H](O)[C@H]2O)n1` [Ribavirin] the “Effect on ISV area” value (zebrafish embryos; 1 µM screening) was “mildly reduced”.

For `CC(C)c1nc(CN(C)C(=O)N[C@H](C(=O)N[C@@H](Cc2ccccc2)C[C@H](O)[C@H](Cc2ccccc2)NC(=O)OCc2cncs2)C(C)C)cs1` [Ritonavir], the “Inflammatory response related gene expression upon SARS-CoV-2 spike protein treatment” value [1] is listed as “counteracted”, the “Inflammatory gene response” value [1] is listed as “alter the inflammatory gene response” and the Cmax [2] is listed as 15200 nM. The “Effect on ejection fraction” value (zebrafish embryos; at Cmax) was “altered”, the “Effect on heart rate” value (zebrafish embryos; at Cmax) was “altered” and the “Overall effect on embryonic development” value (zebrafish embryos) was “overall little embryonic alterations”. For the same compound, the “Pericardial Effusion Rate(%)” value (zebrafish embryos) was 8.70%.

With `CNC(=O)c1cc(Oc2ccc(NC(=O)Nc3ccc(Cl)c(C(F)(F)F)c3)cc2)ccn1` [Sorafenib] the “Effect on ISV formation” value (zebrafish embryos; 1 µM screening) was “strong inhibition”.

In the case of `C=CC[C@@H]1/C=C(\C)C[C@H](C)C[C@H](OC)[C@H]2O[C@@](O)(C(=O)C(=O)N3CCCC[C@H]3C(=O)O[C@H](/C(C)=C/[C@@H]3CC[C@@H](O)[C@H](OC)C3)[C@H](C)[C@@H](O)CC1=O)[C@H](C)C[C@@H]2OC` [Tacrolimus], the “Effect on ejection fraction” value (zebrafish embryos; 1 µM screening) is reported as “increase”.

With `CCOC(=O)c1c(CSc2ccccc2)n(C)c2cc(Br)c(O)c(CN(C)C)c12` [Umifenovir] the “Effect on ISV area” value (zebrafish embryos; 1 µM screening) was “mildly reduced”.

With Ivermectin the “Effects on larval behavior” value (zebrafish larvae; 0.5 µM) was “still observed effects”, the “Effect on swimming behavior” value (zebrafish larvae) was “most severe effects” and the Mortality (zebrafish embryos; 0.5 µM) was “mortality disappeared”. The “Effect on body length” value (zebrafish embryos; 1 µM screening) was “highest reduction”, the “Mortality rate (MR)” value (zebrafish embryos) was “over 10%” and the “Overall effect on embryonic development / cardiovascular system” value (zebrafish embryos) was “severely affected embryonic development”.
